Experimental data from patent US20090137493A1, “Inhibition of tumor metastases using protein kinase C (PKC) inhibitors” (priority 2007, published 2009).
Bridges are numbered along the chain shown (N, C = ends). Where no end group is shown, it is not given here.

Experiments:
αPKC = biological target: T1, αPKC (Mus musculus, UniProt P20444); test: Translocation of αPKC in tumor cells (immunoblot of cytosol and particulate fractions); format: in vivo; conditions: FIG. 5A
T1 construct: endogenous in cells; host or cells: 4T1 murine mammary tumour cells grown as tumours in Balb/c mice
Description: FIGS. 5A-5B are bar graphs showing the percentage of translocation of αPKC (FIG. 5A) and βIIPKC (FIG. 5B) […] in tumor cells treated with αV5-3-TAT peptide.
To further characterize inhibition of metastasis using the α and βIIPKC inhibitors, the percentage of translocation of αPKC (FIG. 5A) and βIIPKC (FIG. 5B), […] was measured.

[1] = tested on: 4T1 murine mammary cancer cells; test: Lung metastasis of luciferase-tagged 4T1 tumors in mice, imaging (relative light units); format: in vivo; conditions: 4T1-luciferase tumor-bearing mice, osmotic pump, about 35 mg/kg/day, four weeks
Description: To determine whether specific PKC inhibitors could reduce the amount of PKC translocation/activation in vivo and thereby reduce tumor cell metastasis, animals were administered an αPKC peptide inhibitor, or appropriate control, via an implanted osmotic pump, following the injection of luciferase-tagged tumor cells. […] The data are summarized in the bar graph shown in FIG. 4, along with similar data relating to the use of a βIIV5-3-TAT conjugate peptide (βPKC; SEQ ID NO: 27). The extent of lung metastasis is expressed as relative light units.
Balb/c female mice (6 weeks old) were injected semi-orthotopically with 4T1 murine mammary cancer cells tagged with luciferase ([…] cells/100 μL). One week later, an osmotic minipump was implanted subcutaneously in each animal, for delivery of saline (control), TAT peptide (control, YGRKKRRQRRR, SEQ ID NO: 25), the peptide inhibitor αV5-3 (QLVIAN, SEQ ID NO: 6) attached via an N-terminal disulfide bond to TAT peptide (YGRKKRRQRRR-CC-QLVIAN, SEQ ID NO: 26).
In other experiments, the peptide inhibitor βIIV5-3 (QEVIAN, SEQ ID NO: 13) or εV1-2 (EAVSLKPT, SEQ ID NO: 20) is attached via an N-terminal disulfide bond to the TAT peptide (SEQ ID NOs: 27 and 28, respectively). The TAT control, αV5-3-TAT, βIIV5-3-TAT, or εV1-2-TAT conjugate peptides are administered at about 35 mg/kg/day for two and four weeks.
After two weeks of treatment with αV5-3-TAT, some animals were selected form imaging (IVIS® 29, Xenogen Corporation, Alameda, Calif.) and analysis, with the remaining animals imaged after four weeks of treatment.
FIG. 4 is a bar graph showing the extent of lung metastasis, expressed as relative light units (based on imaging as exemplified in FIG. 3), in tumor-bearing mice treated for four weeks with saline, the αV5-3-TAT conjugate peptide (αPKC), or the βIIV5-3-TAT conjugate peptide (βPKC). The extent of lung metastasis, quantified approximately by the relative light units, for mice treated with saline, the αPKC inhibitor, and the βIIV5-3 PKC inhibitor peptide is shown. The extent of lung metastases is reduced in the animals treated with the αPKC inhibitor.

[2] = Serum levels of liver enzymes AST and ALT in treated animals; format: in vivo
Text: FIGS. 11A-11B are bar graphs showing the relative serum levels of liver enzymes aspartate transaminase (AST; FIG. 11A) and alanine transaminase (ALT; FIG. 11B) in animals treated with saline or TAT (untreated) or the αV5-3-TAT peptide (aV5-3). FIGS. 11C-11E are bar graphs showing the relative serum levels of white blood cells (FIG. 11C), lymphocytes (FIG. 11D), and neutrophils (FIG. 11E).

beta-1 integrin = test: Beta-1 integrin expression in cells from primary tumors; format: in vivo; conditions: data not shown
Text: FIG. 10A is a bar graph showing the relative expression levels of beta 1 (βI) integrin on the surface of tumor cells from animals with metastasis (Mets) or no metastasis (No mets).
To better understand the role of PKC inhibitors in reducing metastasis, tumor cells, cells from primary tumors in animals with metastasis (Mets) and without metastasis (No mets) were isolated and assayed for levels of beta-1 integrin (FIG. 10A). The levels of beta-1 integrin were reduced about 50% in animals with no metastasis.

[3] = tested on: MDA-MB-231 breast cancer cells; test: Cell migration/invasion assay through a HUVEC monolayer, MDA-MB-231; format: cell-based, human; conditions: peptide 10 μM, re-applied every 2 hours for 10 hours
Text: (§1) FIGS. 14A and 14B are bar graphs showing the efficacy of TAT carrier peptide (TAT), αV5-3-TAT peptide (Alpha), βIIV5-3 peptide (Beta-2), and εV1-2 (Epsilon) in inhibiting the invasion of human MDA-MB-231 and MCF-7 breast cancer cells through a HUVEC monolayer. FIGS. 14C and 14D are bar graphs showing the efficacy of TAT carrier peptide (TAT) or αV5-3-TAT peptide in inhibiting the invasion of 4T1 (FIG. 11C) and MDA-MB-231 (FIG. 11D) cells.
as §1, with “14B show the results of a related experiment measuring” for “14B are bar graphs showing”, “εV1-2 peptide” for “εV1-2”, “14D show the results of a similar experiment” for “14D are bar graphs”
Cell Migration/invasion assay: Primary human endothelial cells (HUVEC's) were plated on top of a matrigel plug in trans-well plates. Once the cells had reached confluence (as determined by examination of a control well), 1×10^6 human breast cancer cells (MCF-7 or MDA-MB-231) expressing luciferase were added above the HUVEC cell layer. Where applicable, peptides were added to a final concentration of 10 μM and re-applied every 2 hours for 10 hours followed by further incubation. After 24-48 hours-incubation the HUVEC cell layer (and all other cells above the matrigel) were removed by scraping of the cell layer into the media and aspiration (repeated 3 times). The relative numbers of cancer cells that had crossed the HUVEC cell layer and entered the matrigel was then determined by bioluminescence detection of luciferase action following addition of luciferin substrate.

[4] = tested on: matrix metalloproteinase 2 (MMP2); test: MMP2 activity in tumor cells from treated animals; format: in vivo; conditions: cells from primary tumors of treated animals, versus saline or TAT, FIG. 10C
Text: FIG. 10C is a bar graph showing the relative levels of matrix metalloproteinase 2 (MMP2) activity in tumor cells from animals treated with saline or TAT (untreated) or the αV5-3-TAT peptide (aV5-3).
Cells from primary tumors in animals treated with the αPKC inhibitor were also isolated and assayed for levels of CXCR4 (FIG. 10B) and levels of matrix metalloproteinase 2 (MMP2) activity (FIG. 10C).

## YGRKKRRQRRR-CC-QLVIAN (YGRKKRRQRRRCCQLVIAN; disulfide 12-13 (inferred)) [αV5-3-TAT]
αPKC
  reduction of αPKC translocation: about 40%
[1]
  effect on lung metastasis compared to control animals (in words): reduced
  reduction of lung metastasis compared to control animals: 4 to 5 fold
[2]; treated animals versus saline or TAT, FIG. 11A
  decrease of relative serum level of aspartate transaminase (AST): about 5 fold
[2]; treated animals versus saline or TAT, FIG. 11B
  decrease of relative serum level of alanine transaminase (ALT): 4-5 fold
[2]; tumor-bearing treated animals
  serum AST/ALT levels (marker of damage or toxicity of the liver): reversed abnormally elevated level of serum AST/ALT levels (a marker of damage or toxicity of the liver) to the normal range
beta-1 integrin
  beta-1 integrin expression: tended to decrease beta-1 integrin expression but the amount was not statistically significant
[3]
  invasion of MDA-MB-231 cells through a HUVEC monolayer: reduced
[4]
  decrease of relative levels of MMP2 activity in tumor cells: about 30%
